# Results as given in US8466184B2, “Biocide” (Titan Chemicals Limited, priority 2011, dated 2013).
# Experiments:
# [1] = 59 wt % tetramethylammonium BIT (40 wt % BIT) in water; after storage for 24 hours and seeding; cited from earlier work
# [2] = Measuring stability of water solutions (temperature at which the solution remained fluid after 24 hours and seeding); type: physicochemical; conditions: after 24 hours and seeding with seed crystal
# Method: According to the invention there is therefore provided a composition consisting essentially of water and the tetramethylammonium salt of 1,2-benzisothiazolin-3-one having a freezing point of less than about 0° C., such as less than about −1° C. for example less than about −3° C., about −5° C., about −10° C., about −15° C., about −20° C., about −25° C. or −30° C. As used herein the expression “freezing point” means that the composition is fluid after 24 hours and seeded with solid tetramethylammonium salt of 1,2-benzisothiazolin-3-one.
# A series of solutions of tetramethylammonium BIT in distilled water were prepared. In series of experiments the temperature at which the solution remained fluid after 24 hours and seeding with a seed crystal of tetramethylammonium BIT was measured.
smiles,measurement,setting,value
"C[N+](C)(C)C.O=c1[n-]sc2ccccc12 [tetramethylammonium BIT, tetramethylammonium salt of 1,2-benzisothiazolin-3-one]",freezing point of lowest freezing point water solution,[1],3 °C
same,Temp at which the solution remained fluid,[2]; 20.3 % BIT concn in distilled water,−5 °C
same,Temp at which the solution remained fluid,[2]; 25.3 % BIT concn in distilled water,−8 °C
same,Temp at which the solution remained fluid,[2]; 30.4 % BIT concn in distilled water,−13 °C
same,Temp at which the solution remained fluid,[2]; 35.6 % BIT concn in distilled water,−20 °C
same,Temp at which the solution remained fluid,[2]; 39.3 % BIT concn in distilled water,−32 °C
same,Temp at which the solution remained fluid,[2]; 42.6 % BIT concn in distilled water,−10 °C
same,Temp at which the solution remained fluid,[2]; 45 % BIT concn in distilled water,5 °C
